Results as given in patent publication US6245758A, “Methods of use for peroxynitrite decomposition catalysts, pharmaceutical compositions therefor” (priority 1996, dated 2001).

Key:
[1] = tested on: CuZnSOD; test: Protection of CuZnSOD from inactivation by peroxynitrite using peroxynitrite decomposition catalysts; assay type: biochemical, bovine; conditions: Fe(III)TMPyP 0.5 and 1.0 uM, Fe(III)TMPS 1.0 and 5.0 uM; peroxynitrite 0-100 uM
Protocol: Assay solutions were prepared as described above except for the addition of various of peroxynitrite decomposition catalyst. The final solution volume was maintained at 10 mL. Thus, to the assay solutions Fe(III)TMPyP (0.5 and 1.0 uM final concentration) and Fe(III)TMPS (1.0 and 5.0 uM final concentration) was added. The solution were then treated with various amounts of peroxynitrite such that the final concentrations of 0,25, 50, 75 and 100 uM were achieved. Following treatment with peroxynitrite EDTA was added to a final concentration of 250 uM. The solutions were then assayed for SOD activity.

[2] = Catalysis of dismutation of superoxide; conditions: under the assay conditions employed
[3] = tested on: RAW 264.7 cells; test: Cell protection assay, Alamar Blue viability after peroxynitrite challenge; assay type: cell-based, murine; conditions: for protection of cells from PN-mediated injury: PN 500 micromolar, RAW cells, FIG. 9 (H2 TMPyP and ZnTMPyP: data not shown)
Protocol: FIG. 8: Comparison of Ni and Fe Catalyst Protection of RAW Cells from PN(peroxynitrite)-mediated Injury. RAW 264.7 cells were plated at approximately 2×10^5 per well of a 96-well plate. […] Each condition represents the mean of 4 wells ±sem.
FIG. 9: Protection from PN-mediated RAW Cell Injury by Fe Catalysts. Cells were treated with 500 micromolar PN in the presence or the absence of the following catalysts: FeTMPyP, FeTMPS, FeTPPS. Cell viability was monitored as described in the text and figure legends 1, 2 and 3. Values represent the mean of 4 determinations ±sem.
Protocol for Cell Protection Assays using Peroxynitrite Decomposition Catalysts: A cell viability assay was established to rapidly assess the efficacy of peroxynitrite(PN) catalysts in protecting cells from PN25 mediated injury and death. The peroxynitrite challenge consisted of a pulse of synthetic PN added exogenously to cells. In order to better assess the efficacy of PN catalysts in protecting cells from PN-mediated damage, a quantity of peroxynitrite(in 50 mM NaOH) determined to cause maximal injury(100%) was added as an exogenous pulse to each well of cells in the presence or absence of catalyst. The NaOH vehicle was not toxic by itself.
Cells(RAW 264.7 cells or P815 mastocytoma cells; American Type Culture Collection, Rockville, Md.) were plated to confluence on 96-well tissue culture plates. Each well is washed twice with Dulbecco's phosphate buffered saline(DPBS; GIBCO BRL, Grand Island, N.Y.) to remove protein and other serum components which might react with the exogenous peroxynitrite. To each well is then added 200 μl of DPBS. PN is next placed into separate wells at increasing concentrations and cell viability monitored. The dose at which maximal cell death is attained is then utilized for the catalyst protection assessment.
Phosphate-buffered saline (200 uL) containing increasing concentrations of catalyst is next placed into individual wells of cells. The maximal dose of PN is subsequently administered to all wells of cells. After 15 minutes, the medium is removed from each well and the cells are either allowed to recover overnight in Earles minimum essential medium without phenol red and supplemented with 10% fetal bovine serum or alternatively the plate of cells is assayed that day for mitochondrial integrity using the Alamar Blue viability assay(Alamar Biosciences, Inc.; Sacramento, Calif.). In either case, cells are incubated at 37° C. in 5% CO2.
Cell injury is measured as follows. Briefly, 10% Alamar Blue(v/v) in Earles MEM with 10% FBS is added to each well of cells for 1-2h. Cell metabolism of the dye generates a fluorescent product which is directly related to the number of viable cells. Moreover, the production of the fluorescent metabolite is linear for over 2 h. The amount of fluorescent product in 100 μl of conditioned medium from each well of cells is then measured with an IDEXX fluorescent plate reader (gain setting of 1%) at an emission wavelength of 575 nm after exciting at 545 nm. Viability is either given as absolute fluorescent units or as a percent of the value obtained for untreated cells(100%).

[4] = tested on: rat jejunum; test: Intestinal vascular permeability (radiolabelled albumin leakage) after endotoxin (LPS); assay type: in vivo; conditions: 30 mg/kg, i.v, 3 h after LPS; determined 1 h later
Protocol: FIG. 10 . Effects of FeTMPS, FeTMPyP or ZnTMPyP (30 mg/kg, i.v bolus) administered 3 h after challenge with E. coli lipopolysaccharide (LPS, 3 mg/kg, i.v bolus) on the increase in leakage of radio-labelled albumin (plasma extravasation, μl/g tissue) observed 1 h later (e.g 4 h after LPS challenge) in the rat jejunum. Results are shown as mean±s.e.m of 4-8 rats.
Intestinal vascular permeability was determined as the leakage into the jejunal tissue of [^125 I]-labelled bovine serum albumin ([^125 ]-BSA) administered intravenously (0.5 ml; 0.5 μCi) together with either LPS (3 mg/kg, serotype O111:B4) or isotonic saline. At 4 h after LPS administration, segments of jejunal tissue were ligated and removed. The intestinal tissues were rapidly washed, blotted dry and weighed. Blood (0.5 ml) was collected into tubes containing tri-sodium citrate (0.318% final concentration) and plasma prepared by centrifugation (10,000 g×10 min). The {^125 I]-BSA content in segments of whole tissue and in aliquots of plasma (100 μl) was determined in a gamma counter. The total content of plasma in the intestinal tissues was expressed as μl/g tissue. Changes in intravascular volume in the intestinal tissue was determined in an additional group of rats by administering ([^125 I]-BSA) intravenously 2 min before removal of the jejunum. The tissue and plasma content of radiolabel was determined and intravascular volume expressed as μl/g tissue. This value was substracted from that obtained in the plasma leakage studies to obtain a measure of the intestinal plasma albumin leakage. After LPS administration (4 h), there was a significant (P<0.01) increase in the plasma leakage (from 77±10 to 224±18 μl/g tissue, n=8).

| SMILES | protection of CuZnSOD against inactivation by peroxynitrite [1] | catalysis of the dismutation of superoxide [2] | protection of RAW 264.7 cells from PN-mediated injury ([3]; PN 360 micromolar, Alamar Blue, FIG. 8) | protection of cells from PN-mediated injury [3] | radiolabelled albumin leakage [4] |
| --- | --- | --- | --- | --- | --- |
| CC(=O)[O-].C[n+]1ccc(-c2c3nc(c(-c4cc[n+](C)cc4)c4ccc([n-]4)c(-c4cc[n+](C)cc4)c4nc(c(-c5cc[n+](C)cc5)c5ccc2[n-]5)C=C4)C=C3)cc1.Cc1ccc(S(=O)(=O)[O-])cc1.Cc1ccc(S(=O)(=O)[O-])cc1.Cc1ccc(S(=O)(=O)[O-])cc1.Cc1ccc(S(=O)(=O)[O-])cc1.[Fe+3] [Fe(III)TMPyP, Acetato (5,10,15,20-tetrakis(N-methyl-4-pyridyl)porphinato) iron (III) tetra-tosylate] | concentration dependant protection of CuZnSOD against inactivation by peroxynitrite | not to be effective catalysts for the dismutation of superoxide | total protection from PN-mediated injury | significant protection of cells | caused a reduction in radiolabelled albumin leakage |
| CC(=O)[O-].Cc1c(-c2c3nc(c(-c4c(C)c(S(=O)(=O)[O-])c(C)c(S(=O)(=O)[O-])c4C)c4ccc([n-]4)c(-c4c(C)c(S(=O)(=O)[O-])c(C)c(S(=O)(=O)[O-])c4C)c4nc(c(-c5c(C)c(S(=O)(=O)[O-])c(C)c(S(=O)(=O)[O-])c5C)c5ccc2[n-]5)C=C4)C=C3)c(C)c(S(=O)(=O)[O-])c(C)c1S(=O)(=O)[O-].[Fe+3].[Na+].[Na+].[Na+].[Na+].[Na+].[Na+].[Na+].[Na+] [Fe(III)TMPS, Acetato-5,10,15,20-tetrakis(3,5-disulfonatomesityl)porphyrin Iron (III) octasodium salt] | concentration dependant protection of CuZnSOD against inactivation by peroxynitrite | not to be effective catalysts for the dismutation of superoxide |  | significant protection of cells | caused a reduction in radiolabelled albumin leakage |
